US20090030037A1, “Sustained Release Formulation and Dosing Schedules of Leukotriene Synthesis Inhibitor for Human Therapy” (deCODE Genetics ehf., priority 2005, published 2009)

Tests used:
sICAM = experiment: Study DG-031-201: ICAM (sICAM-1); type: in vivo, human; conditions: [0%,6%], p=0.03
Experimental: Patients who met the study eligibility criteria were enrolled and randomized into 3 different dose-level groups: (1) 64 patients on 250 mg/day therapy with DG-031 (250 mg q.d.), vs placebo; (2) 64 patients on 500 mg/day therapy with DG-031 (250 mg b.i.d.) vs placebo; and (3) 63 patients on 750 mg/day therapy with DG-031 (250 mg t.i.d.) vs placebo. […] All patients received 3 tablets per day. Treatment periods, 4 weeks in duration each, were separated by a 2-week washout period. The placebo tablets were identical in shape, color, form and taste to the active tablets except that they contained no active drug ingredients. Treatment with DG-031 or placebo was in addition to the subject's standard care, including all medications and treatment plan as prescribed by the subject's cardiologist prior to enrolment. A total of 191 subjects were enrolled, with 172 completing all 8 visits or 8 patients short of the target of 180 patients. […]
All data were analyzed according to a pre-established statistical analysis plan (SAP) and by intention-to-treat (ITT). […] The difference between DG-031 and placebo treatment was the primary outcome, assessed separately for each of the biomarkers. […]

CRP = experiment: Study DG-031-201: Hs-CRP in serum; type: in vivo, human; conditions: for CRP, change: Study 201, 2-6 wks
Experimental: Genet. 2004). Apart from FLAP, allele A of the SNP SG12S25 in the LTA4 hydrolase gene, another gene in the LT pathway, is also associated with MI, as described in PCT application no. PCT/US03/32556 and PCT/US04/30582 incorporated by reference.
Patients who met the study eligibility criteria were enrolled and randomized into 3 different dose-level groups: (1) 64 patients on 250 mg/day therapy with DG-031 (250 mg q.d.), vs placebo; (2) 64 patients on 500 mg/day therapy with DG-031 (250 mg b.i.d.) vs placebo; and (3) 63 patients on 750 mg/day therapy with DG-031 (250 mg t.i.d.) vs placebo. […] All patients received 3 tablets per day. Treatment periods, 4 weeks in duration each, were separated by a 2-week washout period. The placebo tablets were identical in shape, color, form and taste to the active tablets except that they contained no active drug ingredients. Treatment with DG-031 or placebo was in addition to the subject's standard care, including all medications and treatment plan as prescribed by the subject's cardiologist prior to enrolment. A total of 191 subjects were enrolled, with 172 completing all 8 visits or 8 patients short of the target of 180 patients.
The primary objective was to determine whether the FLAP inhibitor has a statistically significant effect, compared to placebo, on one or more biomarkers of MI risk, including: (1) ionomycin-induced LTB4 and MPO release by neutrophils ex vivo; (2) MPO, CRP, N-tyrosine, Lp-PLA2 or amyloid A in serum, or (3) LTE4 in urine. The secondary objective was to determine whether the effect of DG-031 was dose-dependent. The tertiary objective was to assess other biomarkers (See Results). Evaluation of safety and tolerability of the drug was also a primary endpoint.
All data were analyzed according to a pre-established statistical analysis plan (SAP) and by intention-to-treat (ITT). Each arm of the study, as well as pooled sets (combining dose levels), was considered for the primary analysis. Each such set is an AB/BA cross-over design and in the primary analysis of efficacy, the levels of biomarkers of MI risk at the end of the treatment periods (visits 4 and 7) were used as primary response variables. The difference between DG-031 and placebo treatment was the primary outcome, assessed separately for each of the biomarkers. Treatment effect was tested using a two-sample t-test on the period differences for suitably transformed response variables, under an assumption of normality of the transformed data. We report treatment effect as one half of the observed mean differences in the two-sample t-test, with a 95% CI. No pre-tests for carry-over effect were performed as a part of the primary analysis. Tests for carry-over were done and are reported separately from results of primary analysis. All hypotheses were tested at a two-sided nominal significance level of 0.05 and p-values based on t-tests are reported. In addition, for the primary efficacy endpoints where the effects of the two highest doses on 10 primary variables were studied, a randomization test was performed which corrects for multiple testing and ensures that the key results are not affected by distributional concerns. In particular, 1 million permutations of the patients into the different study tracks were performed, generating a reference distribution for the maximum of the 10 t-statistics of the biomarkers under the null hypothesis of no drug effect. By comparing the observed t-statistic of each of the 10 biomarkers to this reference distribution, empirical p-values were computed. As was stated in the SAP prior to unblinding, it was considered likely that experimental manipulations would alter the effect of the drug on two of the primary markers; this was indeed the case and we are only reporting directly on 8 of the 10 primary markers but all 10 are included in the randomization test. […]

## O=C(O)[C@@H](c1ccc(OCc2ccc3ccccc3n2)cc1)C1CCCC1 [DG-031, (R)-(+)-alpha-cyclopentyl-4-(2-quinolinylmethoxy)-Benzeneacetic acid]
sICAM
  Effect on serum sICAM-1: reduced significantly
CRP; 250 mg BID and TID, end of wash-out period (week 6)
  Reduction in CRP: 25%
CRP; 250 mg BID
  CRP, change: −24%
CRP; 250 mg QD
  CRP, change: −6%
CRP; 250 mg TID
  CRP, change: −13% (St. 201)
CRP; difference visit 2 to 5, 500 and 750 mg/day vs placebo
  Carry-over effect, CRP: −0.28
CRP; higher two dose groups (250 mg BID and 250 mg TID), at 2 weeks, p=0.07
  Reduction of serum CRP: 16%
